# Laboratory results published in US12127557B2.
# Where two headings read alike, the source gives them in different places.
# Legend:
# Pythium ultimum = format: cell-based; conditions: no enzyme, 2 days
# Fusarium graminearum = format: cell-based; conditions: no enzyme, 5 days
substance,measurement,setting,value
mancozeb,Reduction in P. ultimum growth (−) enzyme,Pythium ultimum; mancozeb 0.5 mg/l,2% f
same,Reduction in P. ultimum growth (−) enzyme,Pythium ultimum; mancozeb 2 mg/l,10% e
same,Reduction in P. ultimum growth (−) enzyme,Pythium ultimum; mancozeb 5 mg/l,16% e
same,Reduction in P. ultimum growth (−) enzyme,Pythium ultimum; mancozeb 10 mg/l,23% d
same,Reduction in F. graminearum growth (−) enzyme,Fusarium graminearum; mancozeb 0.5 mg/l,6% cd
same,Reduction in F. graminearum growth (−) enzyme,Fusarium graminearum; mancozeb 2 mg/l,1% d
same,Reduction in F. graminearum growth (−) enzyme,Fusarium graminearum; mancozeb 5 mg/l,17% cd
same,Reduction in F. graminearum growth (−) enzyme,Fusarium graminearum; mancozeb 10 mg/l,26% bcd
